Experimental findings from patent US20140005163A1 (NOVARTIS AG, priority 2010, published 2014) are described below.

Structures are written as SMILES. Converted amounts (≈) assume the structure as drawn.

For one series, the target named is T1, PI3K alpha (Homo sapiens, UniProt P42336).
T1 construct: p85(iSH2) fusion partner (see partner chain) (N); His tag (C); made in house; host or cells: baculovirus; Tn5 (Trichoplusia ni) or TiniPro insect cells
Kind of series: PI3K alpha kinase assay (Kinase-Glo luminescence). The format is biochemical. In outline:
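PI3Kα construct EMV B1075 (10 nM final) was preincubated with 10 μg/mL phosphatidylinositol in 10 mM Tris-HCl pH 7.5, 3 mM MgCl2, 50 mM NaCl, 0.05% CHAPS, 1 mM DTT. Reaction started with 1 μM ATP, 60 min at room temperature; remaining ATP measured by Kinase-Glo luminescence. IC50 from 4-parameter logistic fit of 8-point titrations.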

For series [1], the system named is PKB Ser473 phosphorylation in Rat1-myr-HA-p110 beta cells. Kind of series: Reverse protein array assay, PKB Ser473 phosphorylation in Rat1-myr-p110 beta cells. As to conditions: 0.5 h, pAkt Ser473, 30 minutes incubation, read-out: p-PKB IC50. Format: cell-based. In a few lines: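 Rat1 cells expressing myristoylated HA-tagged p110 alpha, beta or delta were plated for at least 20 h, then exposed to 8-step serial compound dilutions (0.2% DMSO final) for 30 min at 37 °C. Lysates were spotted at four dilutions on protein microarrays, and relative fluorescence intensity of phospho-Ser473 PKB was calculated.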

The nature of another series: Solubility at pH 6.8. Format: physicochemical. As to conditions: pH 6.8, aqueous buffer, thermodynamic from solid; read-out: solubility. In outline:
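Following the procedure of Zhou et al. (2007), compound solubility was determined at pH 6.8.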

T1 sequence (P42336 with tags, fused parts or gaps limits assumed): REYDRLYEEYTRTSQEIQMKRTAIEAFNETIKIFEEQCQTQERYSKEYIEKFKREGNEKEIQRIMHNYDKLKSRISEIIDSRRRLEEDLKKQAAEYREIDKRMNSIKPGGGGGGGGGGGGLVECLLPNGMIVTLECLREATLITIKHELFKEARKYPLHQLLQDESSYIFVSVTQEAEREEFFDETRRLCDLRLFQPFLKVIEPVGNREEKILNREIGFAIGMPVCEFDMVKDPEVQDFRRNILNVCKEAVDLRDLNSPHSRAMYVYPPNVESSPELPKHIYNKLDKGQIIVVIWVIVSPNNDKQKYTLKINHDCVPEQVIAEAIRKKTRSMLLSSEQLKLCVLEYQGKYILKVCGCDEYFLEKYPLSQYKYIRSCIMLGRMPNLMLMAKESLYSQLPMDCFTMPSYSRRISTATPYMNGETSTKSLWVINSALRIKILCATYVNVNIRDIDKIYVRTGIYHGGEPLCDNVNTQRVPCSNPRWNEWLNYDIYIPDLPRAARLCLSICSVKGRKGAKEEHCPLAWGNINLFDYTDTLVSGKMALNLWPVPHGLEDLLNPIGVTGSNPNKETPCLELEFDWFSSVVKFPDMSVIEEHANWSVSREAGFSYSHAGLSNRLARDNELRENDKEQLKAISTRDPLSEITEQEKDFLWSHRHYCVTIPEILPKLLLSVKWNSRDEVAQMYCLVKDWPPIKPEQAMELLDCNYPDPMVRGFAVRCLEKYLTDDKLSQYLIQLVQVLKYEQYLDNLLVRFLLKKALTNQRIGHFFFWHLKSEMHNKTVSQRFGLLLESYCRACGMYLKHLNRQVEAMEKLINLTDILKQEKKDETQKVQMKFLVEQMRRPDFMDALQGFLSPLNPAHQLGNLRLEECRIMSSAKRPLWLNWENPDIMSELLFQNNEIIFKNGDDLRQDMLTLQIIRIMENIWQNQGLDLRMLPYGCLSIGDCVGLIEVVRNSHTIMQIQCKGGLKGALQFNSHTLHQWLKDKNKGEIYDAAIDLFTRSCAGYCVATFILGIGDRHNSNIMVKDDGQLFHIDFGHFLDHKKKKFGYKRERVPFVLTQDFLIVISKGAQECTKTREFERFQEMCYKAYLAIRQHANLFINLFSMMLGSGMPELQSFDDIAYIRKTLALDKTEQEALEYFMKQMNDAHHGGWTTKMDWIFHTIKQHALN

One may read the IC50 as the concentration needed to halve the response being measured. By solubility is commonly meant the concentration that dissolves in the medium under given conditions. For `Cc1nn(C)cc1-n1c(=O)n(C)c2cnc3ccc(-c4ccc(-n5cccn5)cc4)cc3c21` [Example 51.1, 1-(1,3-Dimethyl-1H-pyrazol-4-yl)-3-methyl-8-(4-pyrazol-1-yl-phenyl)-1,3-dihydro-imidazo[4,5-c]quinolin-2-one], the IC50 is 23 nM at PI3K alpha and less than 5 nM in series [1]. Also, the solubility in the series “Solubility at pH 6.8” amounted to 5 µg/mL (≈ 11.5 µM).
As to `CCOc1cncc(-c2ccc3ncc4c(c3c2)n(-c2cn(CC(=O)N(C)C)nc2C)c(=O)n4C)c1` [Example 56.2, 2-{4-[8-(5-Ethoxy-pyridin-3-yl)-3-methyl-2-oxo-2,3-dihydro-imidazo[4,5-c]quinolin-1-yl]-3-methyl-pyrazol-1-yl}-N,N-dimethyl-acetamide], the 50% inhibitory concentration (IC50) at PI3K alpha came to 25 nM; in series [1], 409 nM. The solubility in “Solubility at pH 6.8” is greater than 486 µg/mL.
As to `Cc1cnn(C)c1-n1c(=O)n(C)c2cnc3ccc(-c4cncc(OC(C)C)c4)cc3c21` [Example 58.3, 1-(2,4-Dimethyl-2H-pyrazol-3-yl)-8-(5-isopropoxy-pyridin-3-yl)-3-methyl-1,3-dihydro-imidazo[4,5-c]quinolin-2-one], the IC50 at PI3K alpha was 236 nM; in series [1], 281 nM. Besides, the solubility in the series “Solubility at pH 6.8” came to 6 µg/mL (≈ 14 µM).
The matching figures for `COCCOc1cncc(-c2ccc3ncc4c(c3c2)n(-c2cn(C)nc2Cl)c(=O)n4C)c1` [Example 59.2, 1-(3-Chloro-1-methyl-1H-pyrazol-4-yl)-8-[5-(2-methoxy-ethoxy)-pyridin-3-yl]-3-methyl-1,3-dihydro-imidazo[4,5-c]quinolin-2-one]: 5 nM, 61 nM and 6 µg/mL (≈ 12.9 µM).
On the same counts, the results for `CCOc1ncc(-c2ccc3ncc4c(c3c2)n(-c2cn(C)nc2C)c(=O)n4C)cc1N(C)C(C)=O` [Example 63, N-{5-[1-(1,3-Dimethyl-1H-pyrazol-4-yl)-3-methyl-2-oxo-2,3-dihydro-1H-imidazo[4,5-c]quinolin-8-yl]-2-ethoxy-pyridin-3-yl}-N-methyl-acetamide] are 92 nM, 744 nM and greater than 486 µg/mL.
The matching figures for `CCOc1ncc(-c2ccc3ncc4c(c3c2)n(-c2cn(C)nc2C)c(=O)n4C)cc1NC(C)=O` [Example 65, N-{5-[1-(1,3-Dimethyl-1H-pyrazol-4-yl)-3-methyl-2-oxo-2,3-dihydro-1H-imidazo[4,5-c]quinolin-8-yl]-2-ethoxy-pyridin-3-yl}-acetamide]: 460 nM, 43 nM and 31 µg/mL (≈ 65.7 µM).
Take `Cc1ncc(-c2ccc3ncc4c(c3c2)n(-c2cn(C)nc2C)c(=O)n4C)cc1NS(C)(=O)=O` [Example 76, N-{5-[1-(1,3-Dimethyl-1H-pyrazol-4-yl)-3-methyl-2-oxo-2,3-dihydro-1H-imidazo[4,5-c]quinolin-8-yl]-2-methyl-pyridin-3-yl}-methanesulfonamide]: the IC50 stood at 6 nM on PI3K alpha and 356 nM in series [1]. For the same compound, in “Solubility at pH 6.8”, the solubility amounted to 13 µg/mL (≈ 27.2 µM).
On to `CCOc1cc(-c2ccc3ncc4c(c3c2)n(-c2c(C)nn(CC(=O)N(C)C)c2C)c(=O)n4C)cnc1C` [Example 85.3, 2-{4-[8-(5-Ethoxy-6-methyl-pyridin-3-yl)-3-methyl-2-oxo-2,3-dihydro-imidazo[4,5-c]quinolin-1-yl]-3,5-dimethyl-pyrazol-1-yl}-N,N-dimethyl-acetamide], for which the half-maximal inhibitory concentration (IC50) at PI3K alpha amounted to 34 nM; in series [1], 766 nM. Besides, in the series “Solubility at pH 6.8”, the solubility came to 76 µg/mL (≈ 148 µM).
Regarding `CCNc1cc(-c2ccc3ncc4c(c3c2)n(-c2cn(C)nc2Cl)c(=O)n4C)cnc1C` [Example 87.2, 1-(3-Chloro-1-methyl-1H-pyrazol-4-yl)-8-(5-ethylamino-6-methyl-pyridin-3-yl)-3-methyl-1,3-dihydro-imidazo[4,5-c]quinolin-2-one], the IC50 at PI3K alpha is 30 nM; in series [1] it was less than 5 nM. The solubility in “Solubility at pH 6.8” amounted to 222 µg/mL (≈ 496 µM).
